One block for each compound: values may come before it.
Columns and labels:
[1] = tested on: A549 cells; experiment: Immunocytochemistry for cell senescence morphology in A549 cells; type: cell-based; settings: for effect of inducing cancer cell-specific cell senescence: summary of chromone scaffold derivatives, FIG. 21; for cell flatness (morphological change of cell senescence): A549, 20 μM each, 72 hours, FIG. 1
Description: The cells were incubated with Rhodamine Phalloidin (Thermo Fisher, Massachusetts, US) for 4 hours at room temperature. After washing, the cells were incubated with Alexa Fluor 488 (Abcam, Cambridge, UK)-conjugated secondary antibody. Images were analyzed by using EVOS M7000 (Invitrogen, CA, USA). Nuclei were counterstained with DAPI.

[2] = tested on: H358 cells; experiment: CCK-8 cell proliferation assay in H358 cells; type: cell-based; settings: for inhibition of proliferation: H358, 30 μM or more, 72 hours
Description: (§1) H358 cells were seeded in 96-well plates at a concentration of 3×10^4 cells/well for 24 hours.

[3] = tested on: PANC1; experiment: CCK-8 cell proliferation assay in PANC1 cells; type: cell-based, human; settings: for IC50: Homo sapiens, PANC-1, PANC1, CCK-8, 72 hours
[4] = tested on: PC3 cells; experiment: Caspase-3/7 activity (apoptosis) in PC3 cells; type: cell-based, human; settings: PC3, Caspase-3/7 activity; for PC3 apoptosis: various concentrations
Description: Caspase-3/7 activity was measured by using a Caspase-3/7 assay kit (Promega, G8091). […] Afterwards, Caspase-3/7 activity was analyzed according to the manufacturer's protocol.

[5] = tested on: Normal human lung fibroblasts (NHLF); experiment: CCK-8 cell proliferation assay in normal human lung fibroblasts; type: cell-based; settings: CCK-8, FIG. 19
[6] = tested on: NHLF cells; experiment: Mitochondrial membrane potential (MTMP) analysis in NHLF; type: cell-based, human; settings: for apoptosis in normal cells: measured with MTMP, Caspase3 and LDH, FIG. 20
[7] = tested on: A549 cells; experiment: Immunocytochemistry of p53, p21 and p16 in A549 cells; type: cell-based
Description: A549 cell line was treated with 1, 5, 10 and 20 μM of the compound of the present invention (ONG41008), respectively, and after 24 or 72 hours, the cells were fixed by using 4% paraformaldehyde, permeabilized with 0.4% TritonX100 and blocked with 1% BSA. The cells were incubated with Anti-p53 (Cell Signaling Technology, Beverly, MA), Anti-p21 (Abcam, Cambridge, UK) and Anti-p16-INK4A (Proteintech, IL, USA) at room temperature for 4 hours. After washing, the cells were incubated with Alexa Fluor 488 (Abcam, Cambridge, UK)-conjugated secondary antibody. Images were analyzed by using EVOS M7000 (Invitrogen, CA, USA). Nuclei were counterstained with DAPI.

[8] = tested on: A549 cells; experiment: Western blot of p53, phospho-p53, p21 and p16 in A549 cells; type: cell-based
Description: After 24 hours, the cell lysates were clarified by centrifugation at 14,000×g for 10 minutes, and the supernatant was collected. Protein concentration was quantified by Bradford assay (Thermo Fisher, Massachusetts, USA). Afterwards, 25 μg of cellular protein was loaded onto a 10% SDS-PAGE gel and transferred to a nitrocellulose membrane. After blocking with 5% BSA, the membrane was incubated overnight at 4° C. with Anti-p53 (Cell Signaling Technology, Beverly, MA), Anti-phosphor-p53 (Cell Signaling Technology, Beverly, MA), Anti-p21 (Abcam, Cambridge, UK), Anti-p16-INK4A (Proteintech, IL, USA) and Anti-GAPDH (Abcam, Cambridge, UK). After thorough washing, the membrane was incubated with HRP-conjugated secondary antibody. Protein bands were visualized by using ECL reagent (Abfrontier, Korea) and Uvitec HD9 (UVITEC, UK).

[9] = tested on: A549 cells; experiment: Cell changes of TGFβ-stimulated A549 cells; type: cell-based; settings: TGFβ-stimulated A549, 10 μM
[10] = tested on: A549 cells; experiment: Immunocytochemistry for cell senescence and multinucleation of A549 cells over time; type: cell-based; settings: A549, 10 μM
Source text: ZEB1, which is an epithelial-mesenchymal transition (EMT) positive regulator, was used as an expression control.

[11] = tested on: A549 cells; experiment: Western blot of cell cycle kinases in A549 cells; type: cell-based; settings: A549, 50 μM, 24 hours
[12] = tested on: A549 cells; experiment: PI staining cell cycle analysis of A549 cells; type: cell-based; settings: A549, 50 μM
Description: After 24 hours, the cells were harvested and fixed in cooled 70% ethanol, and then stained with propidium iodide containing 200 ug/mL RNase (Abcam, 139418) in the dark at 37° C. for 30 minutes. Each phase of the cell cycle was identified by using Accuri C6 Plus (BD Bioscience).

[13] = tested on: A549 cells; experiment: NAD+/NADH colorimetric assay in A549 cell lysates; type: cell-based
Description: To this end, total NAD was extracted and quantified from A549 cell lysates by using the NAD+/NADH Colorimetric Assay Kit (Abcam, ab65348) according to the manufacturer's protocol. 1×10^6 cells were lysed in 400 μL NAD/NADH extraction buffer, filtered through a 10 kD spin column (ab93349) and measured in pure water or 1/5 dilution. Briefly, the amount of total NAD was calculated by dividing the standard curve (pmol) by the sample volume (μL) added to the reaction wells and multiplying by the dilution factor.

[14] = tested on: A549 cells; experiment: Intracellular ROS (H2DCFDA) in A549 cells; type: cell-based; settings: A549, various concentrations, 24 hours
Description: To this end, 1×10^4 cells/mL of A549 cells were dispensed in 96-well plates, and after 24 hours, the cells were treated with 10 μM H2DCFDA (Invitrogen, CA) and incubated at 37° C. in the dark for 1 hour. […] Intracellular ROS were examined by fluorescence microscopy (Thermo, MA) and quantified by fluorescence spectroscopy (Perkin Elmer, MA).

[15] = tested on: A549 cells; experiment: TUNEL and 7AAD apoptosis analysis of A549 cells; type: cell-based
Description: The TUNEL analysis was performed by using the TUNEL assay kit (Abcam, ab66110) according to the manufacturer's instructions. […] After 24 hours, the cells were harvested and fixed in cold 70% ethanol, and 50 μL of a DNA labeling solution (10 μL of TdT reaction buffer, […], 8 μL of Br-dUTP, 32.5 μL of ddH2O) was added thereto. After 1-hour incubation at 37° C., the cells were washed twice with 300 μL of rinse buffer, and an antibody solution (5 μL of Anti-BrdU-Red antibody, 95 μL rinse buffer) was prepared and added to the washed cells, and the cells were incubated in the dark at room temperature for 30 minutes. 300 μL of 7-AAD/RNase solution was added at last. Each sample was analyzed by using Accuri C6 Plus (BD Bioscience).

[16] = tested on: H358 cells; experiment: Microscopic observation of H358 cells; type: cell-based; settings: H358, 10 μM, 72 hours
Description: as §1

[17] = tested on: H1299 cells; experiment: Immunocytochemistry for multinucleation of H1299 cells; type: cell-based; settings: H1299, treated by concentration
[18] = tested on: PANCI cells; experiment: Immunocytochemistry for multinucleation of PANC1 cells; type: cell-based, human; settings: PANC1, treated by concentration
[19] = tested on: MCF7; experiment: CCK-8 cell proliferation assay in MCF7 cells; type: cell-based; settings: Homo sapiens; MCF7, CCK-8, 72 hours
[20] = tested on: MCF7 cells; experiment: Immunocytochemistry for multinucleation of MCF7 cells; type: cell-based, human; settings: MCF7, treated by concentration
[21] = tested on: PC3; experiment: CCK-8 cell proliferation assay in PC3 cells; type: cell-based; settings: Homo sapiens, PC-3; PC3, CCK-8, 72 hours
[22] = tested on: PC3 cells; experiment: Immunocytochemistry for multinucleation of PC3 cells; type: cell-based, human; settings: PC3, treated by concentration
[23] = tested on: normal cells; experiment: Additional Caspase3/7 analysis in normal cells; type: cell-based, human; settings: data not shown
[24] = tested on: A549 cells; experiment: Mitochondrial membrane potential (TMRE) analysis in A549 cells
[25] = tested on: NHLF cells; experiment: Caspase-3 activity assay in NHLF; type: cell-based; settings: Homo sapiens, read-out: Caspase3: EC 50
Description: (ii) Caspase-3 activity assay was measured by using a Caspase-3 assay kit (Abcam, ab37401). […] Thereafter, protein was measured with BCA (Thermo, 23227), and the protein was adjusted to 50 μg per 50 μL of cell lysis buffer. Afterwards, Caspase-3 activity was analyzed according to the manufacturer's protocol.

[26] = tested on: NHLF cells; experiment: LDH cytotoxicity assay in NHLF; type: cell-based; settings: Homo sapiens, read-out: LDH: EC 50
Description: (iii) LDH cytotoxicity assay detected LDH release by using an LDH assay kit (Abcam, ab56393). […] Absorbance values were measured at 450 nm in a microplate reader.

[27] = A549, mitochondrial membrane potential analysis

SMILES: COc1cc(-c2cc(=O)c3c(O)c(OC)c(O)cc3o2)ccc1O [Jaceocidin, Jaceosidin]
- effect of inducing cancer cell-specific cell senescence [1]: do not exert any effect

SMILES: COc1c(O)cc2oc(-c3ccc(O)cc3)cc(=O)c2c1O [Histidulin, Hispidulin]
- effect of inducing cancer cell-specific cell senescence [1]: do not exert any effect

SMILES: COc1ccc(-c2cc(=O)c3c(O)c(OC)c(O)cc3o2)cc1OC [ONG21001, Eupatilin]
- cell flatness (morphological change of cell senescence) [1]: specifically observed

SMILES: O=c1cc(-c2ccc(O)cc2)oc2cc(O)cc(O)c12 [Apigenin]
- effect of inducing cancer cell-specific cell senescence [1]: does not induce

- IC50 [3]: 84.7 µM
SMILES: CC(=O)O[C@H]1C(=O)[C@@]2(C)[C@H]([C@H](OC(=O)c3ccccc3)[C@]3(O)C[C@H](OC(=O)[C@H](O)[C@@H](NC(=O)c4ccccc4)c4ccccc4)C(C)=C1C3(C)C)[C@]1(OC(C)=O)CO[C@@H]1C[C@@H]2O [paclitaxel, reference compound]
- inhibition of proliferation [2]: inhibited the proliferation of non-small cell lung cancer cells to a similar level

SMILES: O=C(CCCCCCC(=O)Nc1ccccc1)NO [SAHA, suberoylanilide hydroxamic acid]
- PC3 apoptosis [4]: induced PC3 apoptosis in a concentration-dependent manner
- cell proliferation of normal cells [5]: inhibited cell proliferation
- apoptosis in normal cells [6]: induced strong apoptosis

- difference between IC50 of paclitaxel and ONG41008 ([2]; H358, 72 hours, FIG. 9): 14 fold
- IC50 [3]: 11.8 µM
- IC50 [19]: 15.4 µM
- IC50 [21]: 32 µM
- EC50 ([4]; Homo sapiens, PC-3): 20.4 µM
- caspase3/7 activity in normal cells [23]: did not induce caspase3/7 activity
- difference between IC50 of SAHA and ONG41008 ([24]; A549, FIG. 6): ~20 fold
SMILES: COc1ccc(-c2cc(=O)c3c(O)c(OC)c(OCCN4CCNC(=O)C4)cc3o2)cc1OC [ONG41008]
- cell flatness (morphological change of cell senescence) [1]: specifically observed
- TP53 nuclear localization ([7]; A549, 1 μM, 24 hours): nuclear localization was observed
- TP53 protein expression level ([7]; A549, 1 μM, 24 hours): not changed
- p16 expression ([7]; A549, 1, 5, 10 and 20 μM, 24 hours): up-regulated in proportion to the concentration
- p21 expression and localization ([7]; A549, 24 hours): nuclear localized with upregulation
- p16 induction ([8]; A549, 24 hours): induced in a concentration-dependent manner
- p21 induction ([8]; A549, 24 hours): induced in a concentration-dependent manner
- total amount of TP53 ([8]; A549, 24 hours): maintained to be the same
- TP53 phosphorylation ([8]; A549, various concentrations, 24 hours): phosphorylated in proportion to the increase in the concentration
- day from which a significant portion of cells started to die [9]: 6 days
- day on which complete apoptosis was induced [9]: 15 days
- time of treatment with the greatest number of multinucleation [10]: 48 h
- cell flattening ([10]; 24 hours): clearly confirmed
- multinucleation ([10]; 24 hours): multinucleation was also observed
- CDK2 expression [11]: inhibited
- CDK6 expression [11]: inhibited
- cell cycle arrest [12]: arrest of the G1-S-G2 phase
- NAD biosynthesis ([13]; A549): increased
- NAD/NADH ratio (change) ([13]; A549, FIG. 7c): significantly increased
- ROS [14]: increased in a concentration-dependent manner
- apoptosis ([15]; A549, 48 hours of treatment): apoptosis was observed
- apoptosis ([15]; A549, 72 hours of treatment): clearly observed in a compound concentration-dependent manner
- inhibition of proliferation [2]: inhibited the proliferation of non-small cell lung cancer cells to a similar level
- mitotic disruption [16]: observed
- multinucleation [17]: observed
- inhibitory effect on proliferation compared to paclitaxel ([3]; PANC1, 10 μM or more): more excellent inhibitory effect
- multinucleation [18]: observed
- multinucleation [20]: observed
- PC3 apoptosis [4]: induced PC3 apoptosis in a concentration-dependent manner
- multinucleation [22]: observed
- cell proliferation of normal cells [5]: did not inhibit cell proliferation
- apoptosis in normal cells [6]: did not induce significant apoptosis
- day until which inhibitory effect increased, all cells removed [24, 27]: 4 days
- time at which decrease of cell viability / inhibitory effect started [24, 27]: 48 h

- IC50 ([6]; Homo sapiens, read-out: MTMP: IC 50): 41 µM
- EC50 [25]: 128 µM
SMILES: COC(=O)c1ccc2c(c1)NC(=O)/C2=C(\Nc1ccc(N(C)C(=O)CN2CCN(C)CC2)cc1)c1ccccc1 [nintedanib]
- cell proliferation of normal cells [5]: inhibited cell proliferation
- apoptosis in normal cells [6]: induced strong apoptosis
- EC50 [26]: 218 µM
